Measured values: publication PMC10831786 (Virus Research, 2024)

Key:
[1] = tested on: protein synthesis in Vero E6 cells; assay: Puromycin pulse labeling, protein synthesis in cultured Vero E6 cells; type: cell-based, African green monkey
Description: Vero E6 cells were seeded at 30,000 cells per cm^2 in 6-well plates. […] Control experiments were conducted in medium alone and medium containing cycloheximide or DMSO. After 12 min, cells were washed with 37° PBS and then allowed to recover in drug-free 2 % FBS-EMEM for 30 min. Cell pellets, collected by trypsinization and centrifugation for 5 min at 5 000 rpm at 4 °C, were re-suspended in ice-cold PBS and centrifugation was repeated. Collected cells were stored at −80 °C.
Antibodies used were anti-puromycin monoclonal (TFS; MABE34), goat anti-mouse-HRP (TFS, Invitrogen; G21040), rabbit anti-β-actin (Cell Signaling, 4967S, lot 9) and HRP-conjugated goat-anti-rabbit (Cell Signaling, 7074S, lot 27). Protein extract and immunoblotting methods were done by standard methods reported here as Supplementary Information.
Vero E6 cells were seeded at 30,000 cells per cm^2 in 6-well plates. […] Puromycin labelling protocols have been well established by other laboratories and a general review of the methods has been published^79. Control experiments were conducted in medium alone and medium containing cycloheximide or DMSO. Following incubation with puromycin for 12 min, the medium was quickly removed and cells were washed with warm PBS and then allowed to recover in drug-free 2% FBS-EMEM for 30 min. Cell pellets, collected by trypsinization and centrifugation for 5 min at 5 000 rpm at 4°C, were re-suspended in ice-cold PBS and the centrifugation was repeated. Collected cells were stored at -80°C until subjected to the protein preparation as noted below.
Defrosted cell pellets were re-suspended in 120 µl of RIPA (radio-immunoprecipitation) buffer (Sigma; R0278) containing 7 µl of protease inhibitors (Sigma; P8340). Samples were incubated on ice for 40 min with occasional gentle mixing. Cell debris was removed by a 20 min centrifugation at 16,000 g at 4°C and supernatants were stored at -80°C. Protein was measured by the Pierce^TM bicinchoninic acid (BCA) assay (Thermo Fisher Scientific [TFS], MA, USA; 23250), using bovine serum albumin as a standard, according to protocols recommended by the manufacturer.
For immunoblotting, 10 µg of protein was combined with Laemmli buffer containing 10% β-mercaptoethanol, heated at 95°C for 5 min and loaded on 4-20% Mini-PROTEAN® TGX™ precast protein gels. Samples were resolved by electrophoresis in Tris-Gly-SDS buffer and transferred to nitrocellulose membranes. Transfer was conducted in Tris-Gly buffer containing 20% methanol at 4-6 V/cm^2 for one hour. Membranes were blocked in 10 mM sodium phosphate buffer containing 150 mM NaCl (pH 7.8), 5% milk and 0.1% TWEEN20 (PBST) at room temperature for at least one hour, and then incubated overnight with primary anti-puromycin antibodies (TFS; MABE343 mouse monoclonal antibodies clone 12D10; 1:12,500) at 4°C. Membranes were washed for five minutes three times in PBST and incubated with secondary goat anti-mouse horseradish peroxidase (HRP) -conjugated antibodies (TFS, Invitrogen; G21040; 1:25,000) for 90 min. After three more rounds of washing as above, membranes were incubated with an HRP substrate (TFS; 34077) for one minute and chemoluminescence was visualized by exposing membranes to film for 1, 2, 5, 10 and 30 min.
For β-actin staining, the same membranes used for puromycin immunostaining were washed four times, 5 min each, in 20 mM Tris-buffered saline containing 500 mM sodium chloride (pH 7.5) and 0.1% TWEEN20 (TBST) and stripped by two rounds of 20 and 10 min washes at 50°C in glycine buffer (pH 2.2) containing 0.1 % SDS (W/V) and 1% TWEEN20. Membranes were then washed at room temperature with PBS (3x10 min) and PBST (2x5min). Blocking, primary (1:4,000) and secondary (1:5,000) antibody staining was conducted as above. Primary rabbit anti-β-actin antibodies were obtained from Cell Signaling (4967S, lot 9) and secondary HRP-conjugated goat-anti-rabbit antibodies were from the same company (7074S, lot 27). […]

[2] = biological target: protein synthesis in rabbit reticulocyte lysate; assay: Inhibition of protein synthesis in rabbit reticulocyte lysates (luciferase mRNA translation); type: biochemical
Description: The TnT® Quick Coupled Transcription/Translation System from Promega (WI, USA; L1170) was used to evaluate inhibitory effects of ipecac alkaloids and cycloheximide on protein synthesis. Assay conditions were employed as recommended by the manufacturer. Briefly, reactions (20 μl) contained 80 % TNT Quick master mix, 20 µM methionine, 40 ng/µL luciferase RNA (Promega; L4561), and test chemicals. Samples were incubated at 30 °C for 90 min and diluted 10-fold with PBS. An aliquot (2 μl) was mixed with 20 μl of luciferase assay reagent (Promega; E1500) and luminescence was measured with a Turner Designs luminometer (model TD-20/20).

[3] = MTS assay, growth inhibition and toxicity in non-infected Vero E6 cells; type: cell-based, African green monkey; conditions: African green monkey, non-infected Vero E6 cells, MTS, 72 h; read-out: Fifty percent effect (CC50) in non-infected Vero E6
Description: Detailed methods are provided in Supplementary Information.
Vero E6 and BEC-hACE2 cells were grown to 70-80% density in their maintenance media and exposed to various concentrations of ipecac alkaloids (0.0125 – 200 µM) under standard culture conditions for 48-72 h and 24 h, respectively. Controls with varying amounts of DMSO and no DMSO were included also. Vero E6 cells were incubated with drugs in 2% FBS-EMEM, while BEC-HACE2 cells were grown and treated in complete PCS-300-03 medium with supplements. Similar treatments were also conducted using fully confluent non-growing BEC-hACE2 cells. At the end of the exposure period, MTS reagent (Promega G3580) was added at 1/5th of the medium volume and color was allowed to develop by incubation of the plates for an hour in a cell culture incubator. To stop reactions, SDS was added to a final concentration of 2% and optical density of samples was measured at 450 or 490 nm, depending on the model of spectrophotometer (PharmaciaBiotech, NJ, USA; UV spectrophotometer, model Ultrospec2000) or plate reader (Molecular Devices, CA, USA; model Filter Max F5 Multi-mode microplate reader) available at the time of experiment.

HCoV-OC43 = assay: Antiviral activity against HCoV-OC43 in Vero E6 cells (RT-qPCR of N-gene); type: cell-based
Description: Vero E6 cells (∼5 × 10^4 cells/cm^2 in 24-well plates) were infected with […] at MOI of 20 genomes per cell in 2 % FBS-EMEM at 33 °C, 5 % CO2 with gently mixing for 2 h. Infection medium was removed, cells were washed with fresh medium followed by the addition of compounds at indicated concentrations in 2 % FBS-EMEM. After 72 h, 100 µL of medium was collected and stored at −80 °C for viral RNA isolation and RT-qPCR analysis as detailed below. Drugs were added to the medium prior to and after viral absorption for comparison.
HCoV-OC43 RNA was isolated from 100 µL of medium using Quick-RNA Viral Kit-DX (Zymo Research, CA, USA; R1035). The relative amount of viral genomic RNA was determined with Luna Universal One-Step RT-qPCR Kit (New England Biolabs, MA, USA; E3005). […]
RT-qPCR cycles were set for 20 min at 55 °C, 1 min at 95 °C followed by 45 cycles of 95 °C for 10 s, 48 °C for 30 s and 60 °C for 1 min. The threshold cycle (Ct) for each sample was determined using the Opticon Monitor 3 Program (BioRad). Drug effects on viral propagation were evaluated assuming that a difference of one cycle corresponds to a two-fold difference in the number of copies of viral RNA. Ct values obtained for drug-free samples were considered as 100 % viral propagation.

Structure (SMILES) | IC50 ([1]; Chlorocebus sabaeus, Vero C1008, Vero E6 cells, 1 h exposure, puromycin labeling, read-out: 50 % inhibitory activities, protein synthesis) | IC50 ([2]; luciferase mRNA, 30 °C, 90 min) | CC50 at 72 h [3] | Protein synthesis,% ([1]; Vero E6, 0.1 μM) | Protein synthesis, puromycilation signal ([1]; Vero E6, >1 μM) | Concentration above which inhibition of puromycilation is not sustained ([1]; Vero E6 cells) | Efficiency as protein synthesis inhibitors ([1]; cultured cells, puromycin labeling) | IC50 (HCoV-OC43; Betacoronavirus 1, OC43, Vero C1008, Vero E6, drug added after viral absorption, 72 hpi, read-out: Antiviral IC50) | Selectivity index, (SI) CC50/IC50 (HCoV-OC43; HCoV-OC43, Vero E6, 72 hpi) | Inhibitory effects on translation in rabbit reticulocyte lysate ([2]; concentration range 0.1 - 100 μM) | IC50, protein synthesis inhibition in rabbit reticulocyte lysate ([2]; luciferase mRNA, 30 °C, 90 min)
C[C@@H]1C[C@@H]([C@H](O)CC2CC(=O)NC(=O)C2)C(=O)[C@@H](C)C1 [CHX, Cycloheximide, reference compound] | ~30 nM | 31 nM | – | – | – | – | – | – | – | – | –
CCC1=C(C[C@@H]2NCCc3cc(OC)c(OC)cc32)C[C@@H]2c3cc(OC)c(OC)cc3CCN2C1 [DHE1, 4H-Benzo[a]quinolizine, 3-ethyl-1,6,7,11b-tetrahydro-9,10-dimethoxy-2-[[(1S)-1,2,3,4-tetrahydro-6,7-dimethoxy-1-isoquinolinyl]methyl]-, (11bR)-] | – | – | 193000 ± 63600 nM | 0% | signal increase | > 1 µM | inefficient as protein synthesis inhibitors | 1030 ± 446 nM | 188 | no inhibitory effects | Not active
